ChEMBL document CHEMBL4507319 (2021)

Assays:
Conditions in all cases: Compound concentration 1000.0 nM
[1] = target: T1, Serine/threonine-protein kinase Sgk3 (Homo sapiens) (UniProt Q96BR1)
T1 sequence (whole entry): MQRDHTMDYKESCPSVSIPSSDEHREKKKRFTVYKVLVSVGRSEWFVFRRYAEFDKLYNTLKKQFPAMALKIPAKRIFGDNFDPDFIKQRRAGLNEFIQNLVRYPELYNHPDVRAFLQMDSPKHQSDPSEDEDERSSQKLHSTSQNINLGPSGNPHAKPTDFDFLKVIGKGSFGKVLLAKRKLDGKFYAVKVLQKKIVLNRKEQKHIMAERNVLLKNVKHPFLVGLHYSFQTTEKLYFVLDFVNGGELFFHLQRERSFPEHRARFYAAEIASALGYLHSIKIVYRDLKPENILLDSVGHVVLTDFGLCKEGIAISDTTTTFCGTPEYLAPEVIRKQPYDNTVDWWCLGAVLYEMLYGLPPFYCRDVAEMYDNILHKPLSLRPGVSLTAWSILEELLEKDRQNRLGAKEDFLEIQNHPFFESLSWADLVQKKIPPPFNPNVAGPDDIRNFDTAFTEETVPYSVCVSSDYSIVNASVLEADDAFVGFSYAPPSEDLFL

[2] = target: T2, Serine/threonine-protein kinase haspin (Homo sapiens) (UniProt Q8TF76)
T2 sequence (whole entry): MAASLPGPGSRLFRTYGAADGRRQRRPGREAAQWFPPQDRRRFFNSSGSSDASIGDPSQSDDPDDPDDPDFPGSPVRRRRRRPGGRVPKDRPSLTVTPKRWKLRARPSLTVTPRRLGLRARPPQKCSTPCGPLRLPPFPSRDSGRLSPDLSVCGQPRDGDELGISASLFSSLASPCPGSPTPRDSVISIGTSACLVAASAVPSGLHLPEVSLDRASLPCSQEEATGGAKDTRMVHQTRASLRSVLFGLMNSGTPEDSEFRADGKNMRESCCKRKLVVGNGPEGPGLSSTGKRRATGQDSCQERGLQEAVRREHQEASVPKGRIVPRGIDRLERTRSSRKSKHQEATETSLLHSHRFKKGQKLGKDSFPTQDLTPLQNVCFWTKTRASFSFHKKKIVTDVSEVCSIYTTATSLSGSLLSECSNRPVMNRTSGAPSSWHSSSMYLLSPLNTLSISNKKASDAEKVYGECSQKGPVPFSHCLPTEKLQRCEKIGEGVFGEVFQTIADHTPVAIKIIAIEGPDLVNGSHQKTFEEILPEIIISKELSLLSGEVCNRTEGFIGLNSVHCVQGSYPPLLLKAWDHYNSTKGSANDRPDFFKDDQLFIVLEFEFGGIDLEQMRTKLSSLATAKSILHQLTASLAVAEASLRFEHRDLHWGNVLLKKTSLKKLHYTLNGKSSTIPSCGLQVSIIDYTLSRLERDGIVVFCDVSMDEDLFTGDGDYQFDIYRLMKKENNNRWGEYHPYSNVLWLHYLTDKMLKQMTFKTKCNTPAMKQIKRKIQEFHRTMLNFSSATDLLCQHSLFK

[3] = target: Serine/threonine-protein kinase SIK1 (Homo sapiens) (UniProt P57059)
Chain of Serine/threonine-protein kinase SIK1 (Homo sapiens) (P57059 whole entry, canonical isoform): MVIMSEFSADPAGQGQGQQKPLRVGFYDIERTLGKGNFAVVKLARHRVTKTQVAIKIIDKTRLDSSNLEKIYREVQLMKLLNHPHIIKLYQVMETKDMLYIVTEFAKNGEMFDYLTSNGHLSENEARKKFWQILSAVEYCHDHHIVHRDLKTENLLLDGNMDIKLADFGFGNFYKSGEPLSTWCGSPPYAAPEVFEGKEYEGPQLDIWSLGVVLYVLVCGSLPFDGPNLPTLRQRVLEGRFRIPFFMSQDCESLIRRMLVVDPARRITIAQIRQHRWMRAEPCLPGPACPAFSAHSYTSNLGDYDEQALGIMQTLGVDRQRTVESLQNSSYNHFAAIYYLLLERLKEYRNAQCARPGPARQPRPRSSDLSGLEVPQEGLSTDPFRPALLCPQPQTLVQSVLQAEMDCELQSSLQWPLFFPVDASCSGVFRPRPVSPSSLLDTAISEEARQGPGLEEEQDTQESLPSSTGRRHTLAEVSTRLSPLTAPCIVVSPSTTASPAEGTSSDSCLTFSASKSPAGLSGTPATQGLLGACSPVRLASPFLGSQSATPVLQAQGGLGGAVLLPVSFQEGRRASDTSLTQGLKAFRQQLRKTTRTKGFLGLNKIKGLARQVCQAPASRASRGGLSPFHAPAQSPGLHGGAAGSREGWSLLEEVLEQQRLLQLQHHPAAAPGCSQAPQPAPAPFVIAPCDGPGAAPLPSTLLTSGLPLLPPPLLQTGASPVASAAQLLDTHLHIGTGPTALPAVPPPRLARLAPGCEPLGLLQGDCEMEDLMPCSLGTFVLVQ

[4] = target: Casein kinase I isoform gamma-1 (Homo sapiens) (UniProt Q9HCP0)
Chain of Casein kinase I isoform gamma-1 (Homo sapiens) (Q9HCP0 whole entry, looked up, canonical isoform): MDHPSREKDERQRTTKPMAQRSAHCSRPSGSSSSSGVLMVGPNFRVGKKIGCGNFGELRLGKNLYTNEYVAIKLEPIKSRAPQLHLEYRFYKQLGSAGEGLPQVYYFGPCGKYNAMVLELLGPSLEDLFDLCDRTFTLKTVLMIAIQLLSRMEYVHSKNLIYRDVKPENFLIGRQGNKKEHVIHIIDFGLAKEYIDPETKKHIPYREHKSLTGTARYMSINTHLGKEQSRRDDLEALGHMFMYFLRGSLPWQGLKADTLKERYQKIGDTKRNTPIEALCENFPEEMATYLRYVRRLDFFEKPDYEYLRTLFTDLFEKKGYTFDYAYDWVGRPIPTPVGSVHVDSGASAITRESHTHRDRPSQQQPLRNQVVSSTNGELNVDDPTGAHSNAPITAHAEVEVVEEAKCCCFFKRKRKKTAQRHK

[5] = target: Protein kinase C iota type (Homo sapiens) (UniProt P41743)
Chain of Protein kinase C iota type (Homo sapiens) (P41743 whole entry): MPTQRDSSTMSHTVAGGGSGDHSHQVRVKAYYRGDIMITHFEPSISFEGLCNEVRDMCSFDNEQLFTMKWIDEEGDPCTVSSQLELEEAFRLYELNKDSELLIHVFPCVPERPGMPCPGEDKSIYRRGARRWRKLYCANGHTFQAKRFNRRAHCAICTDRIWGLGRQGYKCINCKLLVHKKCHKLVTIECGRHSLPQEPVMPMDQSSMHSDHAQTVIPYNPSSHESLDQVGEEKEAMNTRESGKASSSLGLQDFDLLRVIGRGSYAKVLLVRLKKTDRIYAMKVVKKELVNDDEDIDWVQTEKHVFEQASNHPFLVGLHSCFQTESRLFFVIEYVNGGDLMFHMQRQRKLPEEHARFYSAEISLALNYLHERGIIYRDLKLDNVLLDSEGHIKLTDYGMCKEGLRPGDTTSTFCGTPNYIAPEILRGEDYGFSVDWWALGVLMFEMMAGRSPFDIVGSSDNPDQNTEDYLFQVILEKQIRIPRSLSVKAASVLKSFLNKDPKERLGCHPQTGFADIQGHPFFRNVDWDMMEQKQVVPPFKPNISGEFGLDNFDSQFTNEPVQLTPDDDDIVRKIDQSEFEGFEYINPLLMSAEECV

[6] = target: Serine/threonine-protein kinase 25 (Homo sapiens) (UniProt O00506)
Chain of Serine/threonine-protein kinase 25 (Homo sapiens) (O00506 whole entry, looked up): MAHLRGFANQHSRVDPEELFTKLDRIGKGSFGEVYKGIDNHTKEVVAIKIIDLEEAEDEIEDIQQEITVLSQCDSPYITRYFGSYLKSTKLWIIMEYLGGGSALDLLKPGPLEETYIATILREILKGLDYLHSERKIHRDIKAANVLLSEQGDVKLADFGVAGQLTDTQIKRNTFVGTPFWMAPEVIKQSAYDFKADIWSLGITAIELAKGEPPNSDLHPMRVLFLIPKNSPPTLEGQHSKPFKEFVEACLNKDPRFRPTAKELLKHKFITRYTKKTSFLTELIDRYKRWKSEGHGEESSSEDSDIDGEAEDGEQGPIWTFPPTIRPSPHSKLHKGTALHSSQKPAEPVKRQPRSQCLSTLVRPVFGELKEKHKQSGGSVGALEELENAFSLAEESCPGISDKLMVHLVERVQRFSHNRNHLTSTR

[7] = target: Serine/threonine-protein kinase 32C (Homo sapiens) (UniProt Q86UX6)
Chain of Serine/threonine-protein kinase 32C (Homo sapiens) (Q86UX6 whole entry): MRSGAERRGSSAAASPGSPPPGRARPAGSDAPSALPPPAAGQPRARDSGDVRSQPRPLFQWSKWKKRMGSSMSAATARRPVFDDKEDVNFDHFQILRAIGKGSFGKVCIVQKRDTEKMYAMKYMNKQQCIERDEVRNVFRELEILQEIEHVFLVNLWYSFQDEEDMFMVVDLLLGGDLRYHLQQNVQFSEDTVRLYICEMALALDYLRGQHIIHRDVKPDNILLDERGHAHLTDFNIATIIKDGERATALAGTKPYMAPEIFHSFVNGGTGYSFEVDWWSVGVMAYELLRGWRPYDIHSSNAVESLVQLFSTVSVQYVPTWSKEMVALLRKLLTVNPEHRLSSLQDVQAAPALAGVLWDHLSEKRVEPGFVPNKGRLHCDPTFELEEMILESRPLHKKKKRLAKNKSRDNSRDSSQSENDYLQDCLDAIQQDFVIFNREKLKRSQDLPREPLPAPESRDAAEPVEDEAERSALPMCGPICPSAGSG

[8] = target: T3, G protein-coupled receptor kinase 3 (Homo sapiens) (UniProt P35626)
T3 sequence (whole entry): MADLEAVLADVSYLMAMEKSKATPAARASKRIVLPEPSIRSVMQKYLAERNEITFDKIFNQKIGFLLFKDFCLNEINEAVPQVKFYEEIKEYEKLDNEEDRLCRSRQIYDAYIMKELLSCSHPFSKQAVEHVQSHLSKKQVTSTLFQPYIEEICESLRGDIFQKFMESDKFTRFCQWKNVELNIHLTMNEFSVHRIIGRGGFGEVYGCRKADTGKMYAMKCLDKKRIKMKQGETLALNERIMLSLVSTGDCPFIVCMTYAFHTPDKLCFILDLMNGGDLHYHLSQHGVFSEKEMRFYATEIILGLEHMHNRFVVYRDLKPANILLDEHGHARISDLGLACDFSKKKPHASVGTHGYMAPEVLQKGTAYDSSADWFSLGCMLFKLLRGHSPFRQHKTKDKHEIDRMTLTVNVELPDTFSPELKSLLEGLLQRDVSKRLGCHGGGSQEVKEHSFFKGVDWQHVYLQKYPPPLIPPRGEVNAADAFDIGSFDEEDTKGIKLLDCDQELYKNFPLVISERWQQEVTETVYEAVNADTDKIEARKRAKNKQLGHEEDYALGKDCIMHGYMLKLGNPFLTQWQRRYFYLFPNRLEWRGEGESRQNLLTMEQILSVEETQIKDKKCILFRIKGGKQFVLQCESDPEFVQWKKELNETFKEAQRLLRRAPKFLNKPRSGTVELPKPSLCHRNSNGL

[9] = target: Cyclin-dependent kinase 11A (Homo sapiens) (UniProt Q9UQ88)
Chain of Cyclin-dependent kinase 11A (Homo sapiens) (Q9UQ88 whole entry): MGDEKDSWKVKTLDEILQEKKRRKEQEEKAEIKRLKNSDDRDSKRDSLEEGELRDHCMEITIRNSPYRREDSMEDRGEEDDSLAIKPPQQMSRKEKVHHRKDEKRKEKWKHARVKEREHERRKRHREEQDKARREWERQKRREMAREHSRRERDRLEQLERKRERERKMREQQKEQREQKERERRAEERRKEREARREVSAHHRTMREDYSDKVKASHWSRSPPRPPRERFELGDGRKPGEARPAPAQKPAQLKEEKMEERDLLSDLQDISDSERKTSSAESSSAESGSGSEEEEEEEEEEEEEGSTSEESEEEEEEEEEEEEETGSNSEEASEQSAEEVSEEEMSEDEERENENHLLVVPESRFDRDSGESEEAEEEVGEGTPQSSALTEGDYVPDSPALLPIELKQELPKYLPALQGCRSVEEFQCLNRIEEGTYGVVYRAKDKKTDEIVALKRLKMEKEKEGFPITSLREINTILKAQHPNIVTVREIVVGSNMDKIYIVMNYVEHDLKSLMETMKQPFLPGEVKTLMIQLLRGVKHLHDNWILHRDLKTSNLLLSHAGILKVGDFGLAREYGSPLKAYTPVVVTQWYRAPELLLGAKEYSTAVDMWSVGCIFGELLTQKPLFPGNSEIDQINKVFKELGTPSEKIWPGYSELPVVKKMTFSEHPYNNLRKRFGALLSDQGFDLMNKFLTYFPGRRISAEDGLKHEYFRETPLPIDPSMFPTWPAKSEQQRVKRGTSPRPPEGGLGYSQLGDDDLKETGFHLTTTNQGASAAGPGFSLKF

[10] = target: Mitogen-activated protein kinase 7 (Homo sapiens) (UniProt Q13164)
Chain of Mitogen-activated protein kinase 7 (Homo sapiens) (Q13164 2-816 limits assumed): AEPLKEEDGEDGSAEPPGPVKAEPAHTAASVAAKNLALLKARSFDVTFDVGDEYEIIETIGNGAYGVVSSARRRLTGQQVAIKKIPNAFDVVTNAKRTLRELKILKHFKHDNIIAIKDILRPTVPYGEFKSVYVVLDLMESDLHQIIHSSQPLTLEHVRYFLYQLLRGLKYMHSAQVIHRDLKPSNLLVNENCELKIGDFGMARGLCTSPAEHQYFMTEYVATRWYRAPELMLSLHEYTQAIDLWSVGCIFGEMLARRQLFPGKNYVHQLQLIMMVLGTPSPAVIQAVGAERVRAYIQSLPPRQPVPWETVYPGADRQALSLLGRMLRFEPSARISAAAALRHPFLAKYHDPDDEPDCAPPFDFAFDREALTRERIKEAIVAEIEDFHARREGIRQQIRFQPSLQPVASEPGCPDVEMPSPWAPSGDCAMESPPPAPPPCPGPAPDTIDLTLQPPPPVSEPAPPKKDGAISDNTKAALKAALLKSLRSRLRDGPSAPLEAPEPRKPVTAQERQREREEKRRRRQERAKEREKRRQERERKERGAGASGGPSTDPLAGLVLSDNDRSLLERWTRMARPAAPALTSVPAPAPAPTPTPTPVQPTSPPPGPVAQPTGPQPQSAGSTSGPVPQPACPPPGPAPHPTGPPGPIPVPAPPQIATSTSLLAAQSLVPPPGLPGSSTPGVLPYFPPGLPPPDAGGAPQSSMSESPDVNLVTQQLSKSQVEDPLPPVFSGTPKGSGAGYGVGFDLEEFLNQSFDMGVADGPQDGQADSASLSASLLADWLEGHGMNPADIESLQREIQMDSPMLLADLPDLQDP

[11] = target: Mitogen-activated protein kinase 9 (Homo sapiens) (UniProt P45984)
Chain of Mitogen-activated protein kinase 9 (Homo sapiens) (P45984 whole entry, looked up): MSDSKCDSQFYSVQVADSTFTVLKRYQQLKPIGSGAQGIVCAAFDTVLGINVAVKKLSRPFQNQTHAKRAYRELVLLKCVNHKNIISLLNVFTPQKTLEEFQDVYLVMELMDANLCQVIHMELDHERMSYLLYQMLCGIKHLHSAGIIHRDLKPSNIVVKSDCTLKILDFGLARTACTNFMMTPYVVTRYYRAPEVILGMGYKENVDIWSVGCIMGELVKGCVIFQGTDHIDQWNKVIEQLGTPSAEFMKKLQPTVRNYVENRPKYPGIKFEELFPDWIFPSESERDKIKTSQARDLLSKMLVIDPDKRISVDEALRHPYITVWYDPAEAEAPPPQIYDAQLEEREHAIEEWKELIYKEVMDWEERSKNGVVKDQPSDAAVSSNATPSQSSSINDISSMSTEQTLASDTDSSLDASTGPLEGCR

[12] = target: Cyclin-dependent kinase 2 (Homo sapiens) (UniProt P24941)

Measured: residual activity

CC1=C(C#N)C(c2ccc3c(c2)c(NC(=O)c2ccccc2C)nn3C)C(C#N)=C(C)N1 [BAY-974]
inactive: [1] 95% | [2] 71% | [3] 88% | [4] 100% | [5] 66% | [6] 100% | [7] 79% | [8] 93% | [9] 100% | [10] 100% | [11] 73% | [12] 86%

CCc1ccccc1C(=O)Nc1n[nH]c2c(C)c(F)c(C3C(C#N)=C(C)N(C)C(C)=C3C#N)cc12 [BAY-3827]
inactive: [1] 91% | [2] 100% | [3] 66% | [4] 95% | [5] 82% | [6] 80% | [7] 100% | [8] 100% | [9] 86% | [10] 86% | [11] 67% | [12] 100%
